# Source: patent publication US12527781B2, “Treatment of neurodegenerative conditions by disruption of Rhes” (The Regents of the University of California, priority 2017, dated 2026)
# “Also recorded” adds a separate entry of the source.
# How the values were obtained:
# [1] = test system: Mouse cultured neurons overexpressing Rhes; assay: accumulation of phosphorylated tau in cultured neurons overexpressing Rhes; assay type: cell-based; settings: increasing concentrations, assayed between 25 to 250 nM
# From the text: FIG. 1. Mouse cultured neurons overexpressing Rhes display an aberrant accumulation of phosphorylated tau. […] The two lines represent results for separate culture replications.
# Mouse cultured neurons overexpressing Rhes display an aberrant accumulation of phosphorylated tau.
# rTg4510 mouse [2] = assay: tau pathology in rTg4510 mice (MC1 immunoreactivity, coronal brain area, Iba1 microglia); assay type: in vivo
# From the text: These mice develop tau tangles in the cerebral cortex by 4 months of age and in the hippocampus by 5.5 months. By 5.5 months, the mice also lose about 60% of their hippocampal CA1 neurons. Spatial memory deficits become apparent by 2.5 to 4 months of age; however electrophysiological properties of cortical neurons are detected before the accumulation of tau pathology. […] MC1 immunoreactivity, corresponding to neurofibrillary tangles throughout hippocampus, amygdala, entorhinal cortex and cerebrocortex, was first detected at ˜16 weeks and progressed by 20 weeks to a mean of 92.99±13.626 MC1^+ cells/mm^2 in the cerebral cortex, and 67.57±13.113 cells/mm^2 in the hippocampus.
# Lonafarnib treatment was initiated when the animals were ten weeks old. The drug was resuspended in 20% HBCD and gavage fed, five days on and five days off at 80 mg/Kg/day. The drug was remarkably effective in reducing MC1 immunoreactivity.
# rTg4510 mouse [3] = assay: nest building / nest shredding behaviour in rTg4510 mice; assay type: in vivo; settings: prolonged oral 80 mg/Kg/day
# From the text: FIG. 2. FIG. 2 is a boxplot depicting qualitative scores for mice in shredding nest material for control mice and in the tau mouse model rTg4510 expressing human mutant tau P301L, with efficient shredding scored at 3.5 or higher. Control litter-mates where able to shred their nest material efficiently while rTg4510 mice lost their ability in an age-related matter (score less than 1).
# As transgenic mice age, they display progressive worsening that begins with impaired marble burial and nest shredding and by 30 weeks progresses to hyperexcitability, restlessness in response to human approach and obsessive circling. […] Nest building was assessed at 20 weeks. […] At five weeks, littermate controls and transgenic mice produced nests with similar scores.
# NIH3T3 mouse fibroblasts = assay: macroautophagy flux with tandem reporter mCherry-GFP-LC3B; assay type: cell-based
# [4] = test system: lysosomal protein degradation; assay: proteolysis of long-half-life proteins after 3H-leucine pulse; assay type: cell-based; settings: 48 h pulse with 3H-leucine; NH4Cl and leupeptin present
# Description: To assess this possibility, proteolysis of long-half-life proteins was evaluated after a long pulse (48 h) with ^3H-leucine.
# [5] = cited from earlier work
compound,measurement,setting,value
NC(=O)N1CCC(CC(=O)N2CCC([C@H]3c4ncc(Br)cc4CCc4cc(Cl)cc(Br)c43)CC2)CC1 [Lonafarnib],accumulation of phosphorylated tau,[1],reduced
same,MC1+ cells/mm^2 in hippocampus,"rTg4510 mouse [2]; 80 mg/Kg/day gavage, five days on and five days off from ten weeks, evaluated at 20 weeks, p=6.4×10^−3 vs vehicle",13.38±2.615 MC1+ cells/mm^2
same,MC1+ cells/mm^2 in cortex,"rTg4510 mouse [2]; 80 mg/Kg/day gavage, five days on and five days off from ten weeks, evaluated at 20 weeks, p=7.2×10^−3 vs vehicle",44.27±4.064 MC1+ cells/mm^2
same,hippocampal microgliosis (Iba1),rTg4510 mouse [2]; 20-week old transgenic mice vs age matched untreated transgenic mice,significantly reduced
same,coronal brain area,"rTg4510 mouse [2]; chronic treatment, 20 weeks, vs vehicle and untreated age-matched transgenic mice",significantly larger
same,effect as acute intervention on tau pathology,"rTg4510 mouse [2]; gavage daily for 2 weeks, 80 mg/Kg/day, 20 week-old rTg4510 mice, after tau pathology was fulminant",ineffective
same,nest shredding / nest building,"rTg4510 mouse [3]; absence of Doxycicline (L80), chronic intermittent from ten weeks, assessed at 20 weeks, 80 mg/kg/day",prevented the nest shredding deficit; also recorded: rescued nest building
same,nest shredding,rTg4510 mouse [3]; presence of Doxycicline (L80D),prevented the nest shredding deficit
same,number of autophagosomes,NIH3T3 mouse fibroblasts; at lower concentrations,remained unchanged
same,macroautophagy flux,"NIH3T3 mouse fibroblasts; basal macroautophagy, NIH3T3 mCherry-GFP-LC3B",dose-dependent increase
same,macroautophagy flux in induced cells,NIH3T3 mouse fibroblasts; macroautophagy induced by paraquat or thapsigargin,did not further increase macroautophagy flux
same,proteolysis effect in the presence of NH4Cl and leupeptin,[4],abolished
same,efficacy and tolerability,[5]; dose of 100-150 mg/m2 body surface area,effective and well tolerated
same,side effects in humans,[5]; humans,few side effects in humans
